Among the data in patent US10711000B2 (Fronthera U.S. Pharmaceuticals LLC, priority 2018, dated 2020) are IC50 values, retold here.

In the test the target is T1, Autotaxin (Homo sapiens, UniProt Q13822).
T1 construct: from tissue; host or cells: pooled human plasma
Put plainly: LPA formation in pooled human plasma (ex vivo autotaxin inhibition). As to conditions: 2 hours incubation. The class given is biochemical. As for the experimental part:
Autotaxin is a plasma phosphodiesterase that converts lysophosphatidylcholine (LPC) into lysophosphatidic acid (LPA), therefore LPA formation was used to evaluate the potency of autotaxin inhibitors. The potency of compound was evaluated ex vivo in pooled human plasma.
Various concentrations of compound were incubated with plasma for 2 hours, and the LPA 18:2 and 20:4 concentration was measured by LC/MS/MS. To determine the LPA18:2 or 20:4 concentration in study plasma, a 10× calibration standard of LPA 18:2 or 20:4 were prepared by serial dilution in butyl alcohol: 20000, 10000, 5000, 2000, 1000, 500, 200, 100, 50, 20, and 10 ng/mL. 3 μL of calibration standard solution was added into 27.0 μL of blank plasma in 1.5-mL microcentrifuge tubes to generate 1× calibration standards. The 30.0 μL of standards or study plasma was added into 1.5-mL microcentrifuge tubes. 200 μL of butyl alcohol (containing 25.0 ng/mL LPA17:0 for internal control) was added into each 1.5-mL microcentrifuge tube containing study plasma or calibration standards. After vortexing for 1 minute and centrifuging at 10000 rpm for 10 min, 180 μL of supernatant was transferred into a 96-well plate and the LPA18:2 concentration in the plasma was quantitated using LC/MS/MS together with standards. Briefly, 8 μL of the solutions were injected for LC-MS/MS analysis using an ACQUITY UPLC BEH C18 column (2.1×50 mm, 1.7 μm) with mobile phase A [20 mM NH4OAC in water (0.1% FA)] and phase B [5 mM NH4OAC in water/0.2% FA in ACN=5:95]. Mass spectrometer parameters optimization for LPA18:2 were performed by Deprotonated molecular ion at m/z 433.2 ([M−H]^−) for LPA18:2, 457.2 for LPA20:4 and abundant product ion at m/z 152.8 for both LPA18:2 and LPA20:4 were obtained. Quantitative data were acquired in multiple reaction monitoring (MRM) negative electrospray ionization mode
The inhibition rate of LPA formation was determined by comparing the levels of LPA in treated and non-treated plasma. The data was plotted against the corresponding concentration of compound and the IC50 was calculated through non-linear regression fitting.

Setting [1] is: LPA 18:2 by LC/MS/MS, read-out: LPA formation (18:2) (IC50).
Setting [2] is: LPA 20:4 by LC/MS/MS, read-out: LPA formation (20:4) (IC50).

Like-named read-outs stand apart in the source and are kept apart here.

As for `CCc1nn2c(C)cc(N3CC4(CN(C(=O)[C@H](O)CO)C4)C3)cc2c1N(C)c1nc(-c2ccc(F)cc2)c(C#N)s1` (single isomer, unassigned) [Example 75], the IC50 under setting [1] was 100 to 500 nM and the IC50 under setting [2] was in the range of 100 to 500 nM.
Turning to `CCc1nn2c(C)cc(N3CC4(CN(C(=O)[C@@H](O)CO)C4)C3)cc2c1N(C)c1nc(-c2ccc(F)cc2)c(C#N)s1` (single isomer, unassigned) [Example 76], the IC50 was at most 100 nM under setting [1] and 100 to 500 nM under setting [2].
The like results for `CCc1nn2c(C)cc(N3CC4(CN(C(=O)[C@H]5COC[C@@H]5O)C4)C3)cc2c1N(C)c1nc(-c2ccc(F)cc2)c(C#N)s1` (stereo in doubt) [Example 59, 2-((2-ethyl-5-(6-(4-hydroxytetrahydrofuran-3-carbonyl)-2,6-diazaspiro[3.3]heptan-2-yl)-7-methylpyrazolo[1,5-a]pyridin-3-yl)(methyl)amino)-4-(4-fluorophenyl)thiazole-5-carbonitrile] were, in that order, 100 to 500 nM and 100 to 500 nM.
The like results for `CCc1nn2c(C)cc(N3CC4(CN(C(=O)[C@@H]5COC[C@H]5O)C4)C3)cc2c1N(C)c1nc(-c2ccc(F)cc2)c(C#N)s1` (stereo in doubt) [Example 74, 2-((2-ethyl-5-(6-(4-hydroxytetrahydrofuran-3-carbonyl)-2,6-diazaspiro[3.3]heptan-2-yl)-7-methylpyrazolo[1,5-a]pyridin-3-yl)(methyl)amino)-4-(4-fluorophenyl)thiazole-5-carbonitrile] were, in that order, 100 to 500 nM and 100 to 500 nM.
The like results for `CCn1nc2ncc(N3CCN(CC(=O)N4CC(O)C4)CC3)cc2c1N(C)c1nc(-c2ccc(F)cc2)c(C#N)s1` [Compound 115, 2-((2-ethyl-5-(4-(2-(3-hydroxyazetidin-1-yl)-2-oxoethyl)piperazin-1-yl)-2H-pyrazolo[3,4-b]pyridin-3-yl)(methyl)amino)-4-(4-fluorophenyl)thiazole-5-carbonitrile] were, in that order, at most 100 nM and at most 100 nM.
With `CCn1nc2ncc(N3CC4(CN(C(=O)C5(O)CCOCC5)C4)C3)cc2c1N(C)c1nc(-c2ccc(F)cc2)c(C#N)s1` [Compound 116, 2-((2-ethyl-5-(6-(4-hydroxytetrahydro-2H-pyran-4-carbonyl)-2,6-diazaspiro[3.3]heptan-2-yl)-2H-pyrazolo[3,4-b]pyridin-3-yl)(methyl)amino)-4-(4-fluorophenyl)thiazole-5-carbonitrile], the half-inhibitory concentration (IC50) by setting is: under setting [1], at most 100 nM; under setting [2], at most 100 nM.
With `CCn1nc2nc(C)c(N3CC4(CN(C(=O)C(C)(C)O)C4)C3)cc2c1N(C)c1nc(-c2ccc(F)cc2)c(C#N)s1` [Compound 120, 2-((2-ethyl-5-(6-(2-hydroxy-2-methylpropanoyl)-2,6-diazaspiro[3.3]heptan-2-yl)-6-methyl-2H-pyrazolo[3,4-b]pyridin-3-yl)(methyl)amino)-4-(4-fluorophenyl)thiazole-5-carbonitrile], the IC50 was at most 100 nM under setting [1] and at most 100 nM under setting [2].
Consider `CCn1nc2nc(C)c(N3CC4(CN(C(=O)[C@H]5CCOC5)C4)C3)cc2c1N(C)c1nc(-c2ccc(F)cc2)c(C#N)s1` [Compound 121, (S)-2-((2-ethyl-6-methyl-5-(6-(tetrahydrofuran-3-carbonyl)-2,6-diazaspiro[3.3]heptan-2-yl)-2H-pyrazolo[3,4-b]pyridin-3-yl)(methyl)amino)-4-(4-fluorophenyl)thiazole-5-carbonitrile], for which the half-inhibitory concentration (IC50) reads like this: under setting [1], at most 100 nM; under setting [2], at most 100 nM.
Take `CCn1nc2c(C)cc(N3CCN(CC(=O)N4CC(O)C4)CC3)cc2c1N(C)c1nc(-c2ccc(F)cc2)c(C#N)s1` [Compound 125, 2-((2-ethyl-5-(4-(2-(3-hydroxyazetidin-1-yl)-2-oxoethyl)piperazin-1-yl)-7-methyl-2H-indazol-3-yl)(methyl)amino)-4-(4-fluorophenyl)thiazole-5-carbonitrile]: the IC50 reads like this: under setting [1], 500 to 1000 nM; under setting [2], 500 to 1000 nM.
Take `CCc1nn2ccc(N3CCN(CC(=O)N4CC(O)C4)CC3)cc2c1N(C)c1nc(-c2ccc(F)cc2)c(C#N)s1` [Example 1, 2-((2-ethyl-5-(4-(2-(3-hydroxyazetidin-1-yl)-2-oxoethyl)piperazin-1-yl)pyrazolo[1,5-a]pyridin-3-yl)(methyl)amino)-4-(4-fluorophenyl)thiazole-5-carbonitrile]: the IC50 reads like this: under setting [1], at most 100 nM; under setting [2], at most 100 nM.
On to `CCc1nn2ccc(N3CCN(CC(=O)N4CC[C@H](O)C4)CC3)cc2c1N(C)c1nc(-c2ccc(F)cc2)c(C#N)s1` [Example 2, (S)-2-((2-ethyl-5-(4-(2-(3-hydroxypyrrolidin-1-yl)-2-oxoethyl)piperazin-1-yl)pyrazolo[1,5-a]pyridin-3-yl)(methyl)amino)-4-(4-fluorophenyl)thiazole-5-carbonitrile], for which the IC50 runs as follows: under setting [1], at most 100 nM; under setting [2], at most 100 nM.
On to `CCc1nn2ccc(N3CCN(CC(=O)N4CC[C@@H](O)C4)CC3)cc2c1N(C)c1nc(-c2ccc(F)cc2)c(C#N)s1` [Example 3, (R)-2-((2-ethyl-5-(4-(2-(3-hydroxypyrrolidin-1-yl)-2-oxoethyl)piperazin-1-yl)pyrazolo[1,5-a]pyridin-3-yl)(methyl)amino)-4-(4-fluorophenyl)thiazole-5-carbonitrile], for which the IC50 runs as follows: under setting [1], at most 100 nM; under setting [2], at most 100 nM.
Turning to `CCc1nn2ccc(N3CCN(CC(=O)N4CC(CO)C4)CC3)cc2c1N(C)c1nc(-c2ccc(F)cc2)c(C#N)s1` [Example 4, 2-((2-ethyl-5-(4-(2-(3-(hydroxymethyl)azetidin-1-yl)-2-oxoethyl)piperazin-1-yl)pyrazolo[1,5-a]pyridin-3-yl)(methyl)amino)-4-(4-fluorophenyl)thiazole-5-carbonitrile], the IC50 runs as follows: under setting [1], at most 100 nM; under setting [2], at most 100 nM.
Turning to `CCc1nn2ccc(N3CCN(CC(=O)N(C)C)CC3)cc2c1N(C)c1nc(-c2ccc(F)cc2)c(C#N)s1` [Example 5, 2-(4-(3-((5-cyano-4-(4-fluorophenyl)thiazol-2-yl)(methyl)amino)-2-ethylpyrazolo[1,5-a]pyridin-5-yl)piperazin-1-yl)-N,N-dimethylacetamide], the IC50 runs as follows: under setting [1], at most 100 nM; under setting [2], at most 100 nM.
Regarding `CCc1nn2ccc(N3CCC4(CC3)CC(C(=O)N3CC(O)C3)C4)cc2c1N(C)c1nc(-c2ccc(F)cc2)c(C#N)s1` [Example 6, 2-[[2-ethyl-5-[2-(3-hydroxyazetidine-1-carbonyl)-7-azaspiro[3.5]nonan-7-yl]pyrazolo[1,5-a]pyridin-3-yl]-methyl-amino]-4-(4-fluorophenyl)thiazole-5-carbonitrile], the IC50 is at most 100 nM under setting [1] and at most 100 nM under setting [2].
Take `CCc1nn2ccc(N3CC4(CC4C(=O)N4CC(O)C4)C3)cc2c1N(C)c1nc(-c2ccc(F)cc2)c(C#N)s1` (centres unmarked) [Example 7, 2-((2-ethyl-5-(1-(3-hydroxyazetidine-1-carbonyl)-5-azaspiro[2.3]hexan-5-yl)pyrazolo[1,5-a]pyridin-3-yl)(methyl)amino)-4-(4-fluorophenyl)thiazole-5-carbonitrile]: the IC50 under setting [1] lay in the range of 100 to 500 nM and the IC50 under setting [2] lay within 100 to 500 nM.
As to `CCc1nn2ccc(N3CC4(CC(C(=O)N5CC(O)C5)C4)C3)cc2c1N(C)c1nc(-c2ccc(F)cc2)c(C#N)s1` [Example 8, 2-[[2-ethyl-5-[6-(3-hydroxyazetidine-1-carbonyl)-2-azaspiro[3.3]heptan-2-yl]pyrazolo[1,5-a]pyridin-3-yl]-methyl-amino]-4-(4-fluorophenyl)thiazole-5-carbonitrile], the IC50 was 100 to 500 nM under setting [1] and 100 to 500 nM under setting [2].
For the compound `CCc1nn2ccc(N3CC4(CN(C(=O)[C@@H]5CCOC5)C4)C3)cc2c1N(C)c1nc(-c2ccc(F)cc2)c(C#N)s1` [Example 9, (R)-2-((2-ethyl-5-(6-(tetrahydrofuran-3-carbonyl)-2,6-diazaspiro[3.3]heptan-2-yl)pyrazolo[1,5-a]pyridin-3-yl)(methyl)amino)-4-(4-fluorophenyl)thiazole-5-carbonitrile], the IC50 by setting is: under setting [1], 100 to 500 nM; under setting [2], 100 to 500 nM.
With `CCc1nn2ccc(N3CC4(CN(C(=O)[C@H]5CCOC5)C4)C3)cc2c1N(C)c1nc(-c2ccc(F)cc2)c(C#N)s1` [Example 10, (S)-2-((2-ethyl-5-(6-(tetrahydrofuran-3-carbonyl)-2,6-diazaspiro[3.3]heptan-2-yl)pyrazolo[1,5-a]pyridin-3-yl)(methyl)amino)-4-(4-fluorophenyl)thiazole-5-carbonitrile], the 50% inhibitory concentration (IC50) runs as follows: under setting [1], at most 100 nM; under setting [2], at most 100 nM.

What is called IC50 is the point on the concentration scale where inhibition reaches its midpoint.
